The test system of the first data set is recRSV-A2-L19FD489E-fireSMASh.
Assay: not given
The class given is cell-based, respiratory syncytial virus.
Settings: not given
For the compound `Cc1ccoc1C(=O)N1CCCn2nc(C(=O)Nc3ccc(F)cc3F)cc2C1` [Compound 8c, N-(2,4-difluorophenyl)-5-(3-methylfuran-2-carbonyl)-5,6,7,8-tetrahydro-4H-pyrazolo[1,5-a][1,4]diazepine-2-carboxamide], the “improvement in antiviral potency compared to hit compound 1a” value was “approximately 4 fold”.

Turning to `Cc1ccoc1C(=O)N1CCCn2nc(C(=O)Nc3ccccc3F)cc2C1` [Compound 8g, N-(2-fluorophenyl)-5-(3-methylfuran-2-carbonyl)-5,6,7,8-tetrahydro-4H-pyrazolo[1,5-a][1,4]diazepine-2-carboxamide], the “improvement in antiviral potency compared to hit compound 1a” value was “approximately 4 fold”. Still for that read-out and setting: next, `Cc1ccoc1C(=O)N1CCCn2nc(C(=O)Nc3ccc(F)cc3Cl)cc2C1` [Compound 8n, N-(2-chloro-4-fluorophenyl)-5-(3-methylfuran-2-carbonyl)-5,6,7,8-tetrahydro-4H-pyrazolo[1,5-a][1,4]diazepine-2-carboxamide]: “approximately 4 fold”.

The data set is the same for the next values; noted with them: SAR discussion.
Consider “5-(4-Methylisoxazole-5-carbonyl)-N-phenyl-5,6,7,8-tetrahydro-4H-pyrazolo[1,5-a][1,4]diazepine-2-carboxamide [Compound 1q]”, for which the “antiviral (anti-RSV) activity in words” value is given as “complete loss of potency”. Regarding “5-(4-Methyloxazole-5-carbonyl)-N-phenyl-5,6,7,8-tetrahydro-4H-pyrazolo[1,5-a][1,4]diazepine-2-carboxamide [Compound 1r]”, the “antiviral (anti-RSV) activity in words” value is “complete loss of potency”. As to `Cc1ccsc1C(=O)N1CCCn2nc(C(=O)Nc3ccccc3)cc2C1` [Compound 1c, 5-(3-Methylthiophene-2-carbonyl)-N-phenyl-5,6,7,8-tetrahydro-4H-pyrazolo[1,5-a][1,4]diazepine-2-carboxamide], the “antiviral (anti-RSV) activity in words” value was “complete loss of potency”. Same read-out and setting: next, `Cc1cc[nH]c1C(=O)N1CCCn2nc(C(=O)Nc3ccccc3)cc2C1` [Compound 1d, 5-(3-Methyl-1H-pyrrole-2-carbonyl)-N-phenyl-5,6,7,8-tetrahydro-4H-pyrazolo[1,5-a][1,4]diazepine-2-carboxamide]: “complete loss of potency”. In the case of `Cc1ccn(C)c1C(=O)N1CCCn2nc(C(=O)Nc3ccccc3)cc2C1` [Compound 1e, 5-(1,3-Dimethyl-1H-pyrrole-2-carbonyl)-N-phenyl-5,6,7,8-tetrahydro-4H-pyrazolo[1,5-a][1,4]diazepine-2-carboxamide], the “antiviral (anti-RSV) activity in words” value is recorded as “complete loss of potency”. Take `O=C(Nc1ccccc1)c1cc2n(n1)CCCN(C(=O)c1occc1-c1ccccc1)C2` [Compound 1h, N-phenyl-5-(3-phenylfuran-2-carbonyl)-5,6,7,8-tetrahydro-4H-pyrazolo[1,5-a][1,4]diazepine-2-carboxamide]: the “antiviral (anti-RSV) activity in words” value is “lacked appreciable inhibitory activity”. As to `Cc1c(C(=O)N2CCCn3nc(C(=O)Nc4ccccc4)cc3C2)oc2ccccc12` [Compound 1i, 5-(3-Methylbenzofuran-2-carbonyl)-N-phenyl-5,6,7,8-tetrahydro-4H-pyrazolo[1,5-a][1,4]diazepine-2-carboxamide], the “antiviral (anti-RSV) activity in words” value is reported as “complete loss of potency”. On to `O=C(Nc1ccccc1)c1cc2n(n1)CCCN(C(=O)c1occc1C(F)(F)F)C2` [Compound 1j, N-phenyl-5-(3-(trifluoromethyl)furan-2-carbonyl)-5,6,7,8-tetrahydro-4H-pyrazolo[1,5-a][1,4]diazepine-2-carboxamide], for which the “antiviral (anti-RSV) activity in words” value is “negative impacts on the potency”.

`CCc1ccoc1C(=O)N1CCCn2nc(C(=O)Nc3ccccc3)cc2C1` [Compound 1k, 5-(3-Ethylfuran-2-carbonyl)-N-phenyl-5,6,7,8-tetrahydro-4H-pyrazolo[1,5-a][1,4]diazepine-2-carboxamide]: the “antiviral (anti-RSV) activity in words” value is “negative impacts on the potency”.

As for `Cc1cc(C(=O)N2CCCn3nc(C(=O)Nc4ccccc4)cc3C2)oc1C` [Compound 1n, 5-(4,5-Dimethylfuran-2-carbonyl)-N-phenyl-5,6,7,8-tetrahydro-4H-pyrazolo[1,5-a][1,4]diazepine-2-carboxamide], the “antiviral (anti-RSV) activity in words” value was “lacked antiviral activity”. In the case of `Cc1coc(C(=O)N2CCCn3nc(C(=O)Nc4ccccc4)cc3C2)c1` [Compound 1o, 5-(4-Methylfuran-2-carbonyl)-N-phenyl-5,6,7,8-tetrahydro-4H-pyrazolo[1,5-a][1,4]diazepine-2-carboxamide], the “antiviral (anti-RSV) activity in words” value is on record as “loss of activity”. In the case of `Cc1ccc(C(=O)N2CCCn3nc(C(=O)Nc4ccccc4)cc3C2)o1` [Compound 1p, 5-(5-Methylfuran-2-carbonyl)-N-phenyl-5,6,7,8-tetrahydro-4H-pyrazolo[1,5-a][1,4]diazepine-2-carboxamide], the “antiviral (anti-RSV) activity in words” value was “loss of activity”. For `O=C(Nc1ccccc1)c1cc2n(n1)CCCN(C(=O)c1ccncn1)C2` [Compound 1s, N-phenyl-5-(pyrimidine-4-carbonyl)-5,6,7,8-tetrahydro-4H-pyrazolo[1,5-a][1,4]diazepine-2-carboxamide], the “antiviral (anti-RSV) activity in words” value is given as “complete loss of potency”. Take `Cc1ccoc1CN1CCCn2nc(C(=O)Nc3ccccc3)cc2C1` [Compound 1t, 5-((3-Methylfuran-2-yl)methyl)-N-phenyl-5,6,7,8-tetrahydro-4H-pyrazolo[1,5-a][1,4]diazepine-2-carboxamide]: the “antiviral (anti-RSV) activity in words” value is reported as “complete loss of bioactivity”. As to `O=C(Nc1ccccc1)c1cc2n(n1)CCCN(S(=O)(=O)c1ccco1)C2` [Compound 1u, 5-(Furan-2-ylsulfonyl)-N-phenyl-5,6,7,8-tetrahydro-4H-pyrazolo[1,5-a][1,4]diazepine-2-carboxamide], the “antiviral (anti-RSV) activity in words” value is recorded as “complete loss of bioactivity”.

As for `Cc1ccoc1C(=O)N1CCCn2nc(C(=O)N(C)c3ccccc3)cc2C1` [Compound 8a, N-methyl-5-(3-methylfuran-2-carbonyl)-N-phenyl-5,6,7,8-tetrahydro-4H-pyrazolo[1,5-a][1,4]diazepine-2-carboxamide], the “antiviral (anti-RSV) activity in words” value was “loss of activity”.

`Cc1ccoc1C(=O)N1CCCn2nc(C(=O)Nc3ccc(F)cc3)cc2C1` [Compound 8i, N-(4-fluorophenyl)-5-(3-methylfuran-2-carbonyl)-5,6,7,8-tetrahydro-4H-pyrazolo[1,5-a][1,4]diazepine-2-carboxamide]: the “antiviral (anti-RSV) activity in words” value is “nanomolar potency”. For the compound `COc1ccc(NC(=O)c2cc3n(n2)CCCN(C(=O)c2occc2C)C3)cc1` [Compound 8l, N-(4-methoxyphenyl)-5-(3-methylfuran-2-carbonyl)-5,6,7,8-tetrahydro-4H-pyrazolo[1,5-a][1,4]diazepine-2-carboxamide], the “antiviral (anti-RSV) activity in words” value is reported as “nanomolar potency”. As to `Cc1ccoc1C(=O)N1CCCn2nc(C(=O)Nc3ccc(F)cc3Cl)cc2C1` [Compound 8n, N-(2-chloro-4-fluorophenyl)-5-(3-methylfuran-2-carbonyl)-5,6,7,8-tetrahydro-4H-pyrazolo[1,5-a][1,4]diazepine-2-carboxamide], the “antiviral (anti-RSV) activity in words” value was “nanomolar potency”. Still for that read-out and setting: next, `Cc1ccoc1C(=O)N1CCCn2nc(C(=O)Cc3ccccc3)cc2C1` [Compound 8p, 1-(5-(3-Methylfuran-2-carbonyl)-5,6,7,8-tetrahydro-4H-pyrazolo[1,5-a][1,4]diazepin-2-yl)-2-phenylethanone]: “retained sufficient activity”. Still for that read-out and setting: for `Cc1ccoc1C(=O)N1CCCn2nc(CNc3ccccc3)cc2C1` [Compound 8q, (3-Methylfuran-2-yl)(2-((phenylamino)methyl)-7,8-dihydro-4H-pyrazolo[1,5-a][1,4]diazepin-5(6H)-yl)methanone] the value was “retained sufficient activity”. Still for that read-out and setting: for `Cc1ccoc1C(=O)N1CCCn2nc(S(=O)(=O)Nc3ccccc3)cc2C1` [Compound 8r, 5-(3-Methylfuran-2-carbonyl)-N-phenyl-5,6,7,8-tetrahydro-4H-pyrazolo[1,5-a][1,4]diazepine-2-sulfonamide] the value was “loss of activity”; for `Cc1ccoc1C(=O)N1CCCn2nc(NC(=O)c3ccccc3)cc2C1` [Compound 8s, N-(5-(3-methylfuran-2-carbonyl)-5,6,7,8-tetrahydro-4H-pyrazolo[1,5-a][1,4]diazepin-2-yl)benzamide], “loss of activity”.

Regarding `Cc1ccoc1C(=O)N1CCCn2nc(NS(=O)(=O)c3ccccc3)cc2C1` [Compound 8t, N-(5-(3-methylfuran-2-carbonyl)-5,6,7,8-tetrahydro-4H-pyrazolo[1,5-a][1,4]diazepin-2-yl)benzenesulfonamide], the “antiviral (anti-RSV) activity in words” value is given as “loss of activity”.

Tested on in a further data set: not listed separately
Briefly: Metabolic stability in mouse liver S9 fractions. The settings on record: in the absence of cofactors. The class given is in vitro ADME.
`Cc1ccoc1C(=O)N1CCCn2nc(C(=O)Nc3ccccc3F)cc2C1` [Compound 8g, N-(2-fluorophenyl)-5-(3-methylfuran-2-carbonyl)-5,6,7,8-tetrahydro-4H-pyrazolo[1,5-a][1,4]diazepine-2-carboxamide]: the “stability with mouse S9 fractions” value was “hydrolyzed rapidly”.

The data set is the same for the next values; noted with them: mouse S9 subcellular fractions.
In the case of `Cc1ccoc1C(=O)N1CCCn2nc(C(=O)Cc3ccccc3)cc2C1` [Compound 8p, 1-(5-(3-Methylfuran-2-carbonyl)-5,6,7,8-tetrahydro-4H-pyrazolo[1,5-a][1,4]diazepin-2-yl)-2-phenylethanone], the “improvement in half-life compared to 8g” value is recorded as 2 fold.

Tested on in another data set: not listed separately
Briefly: Metabolic stability in mouse liver microsomes. It counts as in vitro ADME. The settings on record: without cofactors, 2 hours. (Microsomes from liver hold many membrane-bound enzymes, among them those of drug oxidation.)
Take `Cc1ccoc1C(=O)N1CCCn2nc(C(=O)Cc3ccccc3)cc2C1` [Compound 8p, 1-(5-(3-Methylfuran-2-carbonyl)-5,6,7,8-tetrahydro-4H-pyrazolo[1,5-a][1,4]diazepin-2-yl)-2-phenylethanone]: the “stability of parent in mouse liver microsomes” value is “parent remained intact”.

In a further data set the test system is RSV.
Assay: not given
The settings on record: orally available; phase II clinical trials; cited from earlier work.
For `CC(C)C(=O)OC[C@@]1(CCl)O[C@@H](n2ccc(N)nc2=O)[C@H](F)[C@@H]1OC(=O)C(C)C` [ALS-8176, 4'-chloromethyl-2'-deoxy-3',5'-di-o-isobutyryl-2'-fluorocytidine], the “effect on viral load and disease symptoms” value was “decreased viral load and disease symptoms”.

The record behind these values is publication PMC5504085 (Journal of medicinal chemistry, 2017).
